Read-outs that look alike come from different tables or passages of the source.
Legend:
[1] = system: Rice (Oryza sativa) 'Cybonee'; settings: for Percent rice injury Cybonet: in vivo
Procedure: (§1) Rice (Oryza sativa) crop varieties (‘Cybonee’, ‘Jupiter’, and ‘Taggart’) and red rice (Oryza sativa) were planted in 6 inch plastic pots containing sterile top soil. Eight to ten seeds of each species were seeded at 12 o'clock, 3 o'clock, 6 o'clock or 9 o'clock around the pot. The pots were watered after planting. […] The test solutions were applied using a compressed air track spray chamber at 30 gallons per acre using a Teejet 8001E nozzle at 40 PSI, three replicates per test rate. After treatment, the pots were watered lightly and transferred to trays in a greenhouse. After the plants were two inches in height the trays were flooded with water and maintained as such for 14 days. The trays were emptied of water and the pots were maintained by regular watering for 4 more days. At 14, 21 and 28 days after treatment (DAT) the plants were evaluated versus untreated control pots containing the same rice and weeds using a scale of 0% (no control) to 100% (complete plant death).

[2] = system: Rice (Oryza sativa) 'Jupiter'; settings: for Percent rice injury Jupiter: in vivo
Procedure: as §1

[3] = system: Rice (Oryza sativa) 'Taggart'; settings: for Percent rice injury Taggart: in vivo
Procedure: as §1

red rice (Oryza sativa) [4] = test: Pre-emergent evaluation on flooded rice, red rice control; assay type: in vivo; settings: 200 g ai/ha; for Percent red rice control: PRE, direct-seeded flooded rice
Procedure: as §1

[5] = system: Rice (Oryza sativa) 'Cybonee'; settings: for Percent rice injury Cybonet: Cybonee, Oryza sativa (rice), in vivo
Text: (§2) Rice (Oryza sativa) was planted in 6″ by 10″ fiber flats filled with sterile top soil. Five rows were made in each flat and the three rice varieties (′Cybonee, ‘Jupiter’, and ‘Taggart’) were planted in the center 3 rows and a row of red rice (Oryza sativa) was planted on either end of the flat. The flats were watered after planting. After application flats were placed in the greenhouse and lightly watered. […] The flats were moved to a greenhouse and watered and fertilized routinely. Studies were conducted using randomized complete block design with four replications. In both studies, visual percent red rice control and rice injury were recorded at 14, 21, and 28 days after treatment (DAT), using a scale of 0 (no control/injury) to 100 (complete plant death).

[6] = system: Rice (Oryza sativa) 'Jupiter'; settings: for Percent rice injury Jupiter: Oryza sativa (rice), in vivo
Text: as §2

[7] = system: Rice (Oryza sativa) 'Taggart'; settings: for Percent rice injury Taggart: Oryza sativa (rice), in vivo
Text: as §2

red rice (Oryza sativa) [8] = test: Pre-emergent evaluation on dryland rice, red rice control; assay type: in vivo; settings: 200 g ai/ha; for Percent red rice control: PRE, direct-seeded dryland rice
Text: as §2

CC1(C)CON(Cc2ccccc2Cl)C1=O [Clomazone, clomazone]
Percent rice injury Cybonet ([1]; Cybonee, Oryza sativa (rice), 21 days after treatment): 58 A % | Percent rice injury Cybonet ([1]; Cybonee, Oryza sativa (rice), 28 days after treatment): 49 AB % | rice injury, 'Cybonee' ([1]; PRE flooded rice, 200 g ai/ha): injured | Percent rice injury Cybonet [1]: 41 A % | Percent rice injury Jupiter ([2]; Jupiter, Oryza sativa (rice), 21 days after treatment): 86 A % | Percent rice injury Jupiter ([2]; Jupiter, Oryza sativa (rice), 28 days after treatment): 79 A % | rice injury, 'Jupiter' ([2]; PRE flooded rice, 200 g ai/ha): injured | Percent rice injury Jupiter [2]: 60 A % | rice injury, 'Taggart' ([3]; PRE flooded rice, 200 g ai/ha): injured | Percent rice injury Taggart ([3]; Taggart, Oryza sativa (rice), 21 days after treatment): 76 A % | Percent rice injury Taggart ([3]; Taggart, Oryza sativa (rice), 28 days after treatment): 71 A % | Percent rice injury Taggart [3]: 58 A % | red rice control (red rice (Oryza sativa) [4]; PRE flooded rice): failed to control | Percent red rice control (red rice (Oryza sativa) [4]; 14 DAT): 56 C % | Percent red rice control (red rice (Oryza sativa) [4]; 21 DAT): 59 B % | Percent red rice control (red rice (Oryza sativa) [4]; 28 DAT): 52 B % | Percent rice injury Cybonet ([5]; 14 days after treatment): 35 A % | Percent rice injury Cybonet ([5]; 21 days after treatment): 39 A % | Percent rice injury Cybonet ([5]; 28 days after treatment): 43 A % | rice injury, 'Cybonee' ([5]; PRE dryland rice, 200 g ai/ha): injured | Percent rice injury Jupiter ([6]; 14 days after treatment): 31 A % | Percent rice injury Jupiter ([6]; 21 days after treatment): 41 A % | Percent rice injury Jupiter ([6]; 28 days after treatment): 44 A % | rice injury, 'Jupiter' ([6]; PRE dryland rice, 200 g ai/ha): injured | rice injury, 'Taggart' ([7]; PRE dryland rice, 200 g ai/ha): injured | Percent rice injury Taggart ([7]; 14 days after treatment): 40 A % | Percent rice injury Taggart ([7]; 21 days after treatment): 60 A % | Percent rice injury Taggart ([7]; 28 days after treatment): 66 A % | red rice control (red rice (Oryza sativa) [8]; PRE dryland rice): failed to control | Percent red rice control (red rice (Oryza sativa) [8]; 14 DAT): 38 C % | Percent red rice control (red rice (Oryza sativa) [8]; 21 DAT): 50 D % | Percent red rice control (red rice (Oryza sativa) [8]; 28 DAT): 46 C %
